The target of the test is T1, mTOR (Homo sapiens, UniProt P42345).
T1 construct: FLAG; made in house
Briefly: In Vitro mTOR Kinase Assay (Echo), Test (a)(ii). The class given is biochemical. The conditions noted are these: table of enzyme assay Test (a)(ii); read-out: Test (a)(ii) IC50. In outline: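 FLAG-tagged human mTOR truncation (residues 1362-2549) expressed in HEK293 cells and FLAG-purified. Compounds dispensed acoustically, reaction 2 h at room temperature, stopped with EDTA. Phosphorylation of biotinylated peptide detected by AlphaScreen with anti-p70 S6K (T389) antibody overnight; IC50 reported.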

This is an account of results in patent publication US20090018134A1, “Compounds - 945” (AstraZeneca AB, priority 2007, published 2009).

T1 sequence (P42345 1362-2549): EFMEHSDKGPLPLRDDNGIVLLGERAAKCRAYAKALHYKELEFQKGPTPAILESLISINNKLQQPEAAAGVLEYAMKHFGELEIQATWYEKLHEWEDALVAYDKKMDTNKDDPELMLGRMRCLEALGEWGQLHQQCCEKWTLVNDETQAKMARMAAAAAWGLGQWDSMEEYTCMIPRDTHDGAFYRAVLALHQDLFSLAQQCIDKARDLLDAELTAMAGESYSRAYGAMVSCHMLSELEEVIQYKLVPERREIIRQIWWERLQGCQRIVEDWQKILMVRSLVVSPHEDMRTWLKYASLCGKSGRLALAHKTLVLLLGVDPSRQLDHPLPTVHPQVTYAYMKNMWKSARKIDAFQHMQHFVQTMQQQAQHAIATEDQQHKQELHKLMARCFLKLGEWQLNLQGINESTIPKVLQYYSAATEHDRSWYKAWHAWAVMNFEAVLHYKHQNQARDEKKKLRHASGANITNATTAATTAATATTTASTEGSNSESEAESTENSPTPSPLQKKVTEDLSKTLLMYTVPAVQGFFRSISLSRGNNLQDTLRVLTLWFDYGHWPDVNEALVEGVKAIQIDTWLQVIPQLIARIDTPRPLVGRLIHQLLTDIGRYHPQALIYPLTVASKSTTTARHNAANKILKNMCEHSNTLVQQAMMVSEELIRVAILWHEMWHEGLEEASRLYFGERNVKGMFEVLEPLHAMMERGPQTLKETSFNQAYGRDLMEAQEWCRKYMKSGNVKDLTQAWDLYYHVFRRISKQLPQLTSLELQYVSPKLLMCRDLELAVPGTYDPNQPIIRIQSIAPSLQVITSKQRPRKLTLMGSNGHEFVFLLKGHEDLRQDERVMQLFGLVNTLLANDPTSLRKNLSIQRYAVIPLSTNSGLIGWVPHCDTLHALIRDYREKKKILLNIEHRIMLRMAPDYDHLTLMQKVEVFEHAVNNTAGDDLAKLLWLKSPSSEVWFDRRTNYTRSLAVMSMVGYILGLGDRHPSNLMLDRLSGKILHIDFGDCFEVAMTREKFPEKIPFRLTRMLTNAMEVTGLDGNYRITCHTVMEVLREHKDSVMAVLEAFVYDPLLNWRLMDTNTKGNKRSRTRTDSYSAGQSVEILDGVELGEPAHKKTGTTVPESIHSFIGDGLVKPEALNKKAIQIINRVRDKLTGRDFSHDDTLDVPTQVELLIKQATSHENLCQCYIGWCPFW

A word on the IC50: it is the concentration that inhibits the measured activity by half. As for `CNC(=O)Nc1ccc(-c2nc(N3[C@@H](C)COC[C@@H]3C)cc(C3(S(=O)(=O)c4ccccc4)CC3)n2)cc1` [Example 93a, 1-[4-[4-[1-(benzenesulfonyl)cyclopropyl]-6-[(3S,5S)-3,5-dimethylmorpholin-4-yl]pyrimidin-2-yl]phenyl]-3-methylurea], the IC50 is 3.03 nM.
Then `C[C@H]1COC[C@H](C)N1c1cc(C2(S(=O)(=O)c3ccccc3)CC2)nc(-c2ccc(NC(=O)NCCO)cc2)n1` [Example 93b, 1-[4-[4-[1-(benzenesulfonyl)cyclopropyl]-6-[(3S,5S)-3,5-dimethylmorpholin-4-yl]pyrimidin-2-yl]phenyl]-3-(2-hydroxyethyl)urea], with 2.3 nM; and `C[C@H]1COC[C@H](C)N1c1cc(C2(S(=O)(=O)c3ccccc3)CC2)nc(-c2ccc(NC(=O)NCCF)cc2)n1` [Example 93c, 1-[4-[4-[1-(benzenesulfonyl)cyclopropyl]-6-[(3S,5S)-3,5-dimethylmorpholin-4-yl]pyrimidin-2-yl]phenyl]-3-(2-fluoroethyl)urea], with 2.9 nM.
Then `C[C@H]1COC[C@H](C)N1c1cc(C2(S(=O)(=O)c3ccccc3)CC2)nc(-c2ccc(NC(=O)NCC(F)F)cc2)n1` [Example 93d, 1-[4-[4-[1-(benzenesulfonyl)cyclopropyl]-6-[(3S,5S)-3,5-dimethylmorpholin-4-yl]pyrimidin-2-yl]phenyl]-3-(2,2-difluoroethyl)urea], with 0.818 nM; and `C[C@H]1COC[C@H](C)N1c1cc(C2(S(=O)(=O)c3ccccc3)CC2)nc(-c2ccc(NC(=O)Nc3cnn(C)c3)cc2)n1` [Example 93e, 1-[4-[4-[1-(benzenesulfonyl)cyclopropyl]-6-[(3S,5S)-3,5-dimethylmorpholin-4-yl]pyrimidin-2-yl]phenyl]-3-(1-methylpyrazol-4-yl)urea], with 5.41 nM.
Then `CNC(=O)Nc1ccc(-c2nc(N3CCOC[C@@H]3C)cc(C3(S(=O)(=O)C4CCOCC4)CC3)n2)cc1` [Example 94a, 3-methyl-1-[4-[4-[(3S)-3-methylmorpholin-4-yl]-6-[1-(oxan-4-ylsulfonyl)cyclopropyl]pyrimidin-2-yl]phenyl]urea], with 13.6 nM.
For the molecule `CCNC(=O)Nc1ccc(-c2nc(N3CCOC[C@@H]3C)cc(C3(S(=O)(=O)C4CCOCC4)CC3)n2)cc1` [Example 94b, 1-ethyl-3-[4-[4-[(3S)-3-methylmorpholin-4-yl]-6-[1-(oxan-4-ylsulfonyl)cyclopropyl]pyrimidin-2-yl]phenyl]urea], the IC50 came to 12.2 nM.
Then `C[C@H]1COCCN1c1cc(C2(S(=O)(=O)C3CCOCC3)CC2)nc(-c2ccc(NC(=O)NC3CC3)cc2)n1` [Example 94c, 3-cyclopropyl-1-[4-[4-[(3S)-3-methylmorpholin-4-yl]-6-[1-(oxan-4-ylsulfonyl)cyclopropyl]pyrimidin-2-yl]phenyl]urea], with 11.8 nM; and `C[C@H]1COCCN1c1cc(C2(S(=O)(=O)C3CCOCC3)CC2)nc(-c2ccc(NC(=O)NCCO)cc2)n1` [Example 94d, 3-(2-hydroxyethyl)-1-[4-[4-[(3S)-3-methylmorpholin-4-yl]-6-[1-(oxan-4-ylsulfonyl)cyclopropyl]pyrimidin-2-yl]phenyl]urea], with 11 nM; and `C[C@H]1COCCN1c1cc(C2(S(=O)(=O)C3CCOCC3)CC2)nc(-c2ccc(NC(=O)Nc3cnn(C)c3)cc2)n1` [Example 94e, 1-[4-[4-[(3S)-3-methylmorpholin-4-yl]-6-[1-(oxan-4-ylsulfonyl)cyclopropyl]pyrimidin-2-yl]phenyl]-3-(1-methylpyrazol-4-yl)urea], with 13.5 nM.
Consider `C[C@H]1COCCN1c1cc(C2(S(=O)(=O)C3CCOCC3)CC2)nc(-c2ccc(NC(=O)NC3CCC3)cc2)n1` [Example 94f, 3-cyclobutyl-1-[4-[4-[(3S)-3-methylmorpholin-4-yl]-6-[1-(oxan-4-ylsulfonyl)cyclopropyl]pyrimidin-2-yl]phenyl]urea], for which the IC50 was 15.1 nM.
`CNC(=O)Nc1ccc(-c2nc(N3CCOC[C@@H]3C)cc(C3(S(=O)(=O)C4CCOC4)CC3)n2)cc1` (stereo partly drawn) [Example 94g, 3-methyl-1-[4-[4-[(3S)-3-methylmorpholin-4-yl]-6-[1-(oxolan-3-ylsulfonyl)cyclopropyl]pyrimidin-2-yl]phenyl]urea]: the half-inhibitory concentration (IC50) amounted to 12.7 nM.
Take `CCNC(=O)Nc1ccc(-c2nc(N3CCOC[C@@H]3C)cc(C3(S(=O)(=O)C4CCOC4)CC3)n2)cc1` (stereo partly drawn) [Example 94h, 1-ethyl-3-[4-[4-[(3S)-3-methylmorpholin-4-yl]-6-[1-(oxolan-3-ylsulfonyl)cyclopropyl]pyrimidin-2-yl]phenyl]urea]: the 50% inhibitory concentration (IC50) was 11.6 nM.
Then `C[C@H]1COCCN1c1cc(C2(S(=O)(=O)C3CCOC3)CC2)nc(-c2ccc(NC(=O)NC3CC3)cc2)n1` (stereo partly drawn) [Example 94i, 3-cyclopropyl-1-[4-[4-[(3S)-3-methylmorpholin-4-yl]-6-[1-(oxolan-3-ylsulfonyl)cyclopropyl]pyrimidin-2-yl]phenyl]urea], with 12.1 nM; and `C[C@H]1COCCN1c1cc(C2(S(=O)(=O)C3CCOC3)CC2)nc(-c2ccc(NC(=O)NCCO)cc2)n1` (stereo partly drawn) [Example 94j, 3-(2-hydroxyethyl)-1-[4-[4-[(3S)-3-methylmorpholin-4-yl]-6-[1-(oxolan-3-ylsulfonyl)cyclopropyl]pyrimidin-2-yl]phenyl]urea], with 6.05 nM.
For `C[C@H]1COCCN1c1cc(C2(S(=O)(=O)C3CCOC3)CC2)nc(-c2ccc(NC(=O)Nc3cnn(C)c3)cc2)n1` (stereo partly drawn) [Example 94k, 1-[4-[4-[(3S)-3-methylmorpholin-4-yl]-6-[1-(oxolan-3-ylsulfonyl)cyclopropyl]pyrimidin-2-yl]phenyl]-3-(1-methylpyrazol-4-yl)urea] the value was 10.6 nM; for `CNC(=O)Nc1ccc(-c2nc(N3CCOC[C@@H]3C)cc(C3(S(=O)(=O)c4ccc(F)c(Cl)c4)CC3)n2)cc1` [Example 95a, 1-[4-[4-[1-(3-chloro-4-fluorophenyl)sulfonyl-cyclopropyl]-6-[(3S)-3-methylmorpholin-4-yl]pyrimidin-2-yl]phenyl]-3-methylurea], 13.9 nM; for `C[C@H]1COCCN1c1cc(C2(S(=O)(=O)c3ccc(F)c(Cl)c3)CC2)nc(-c2ccc(NC(=O)NC3CC3)cc2)n1` [Example 95b, 1-[4-[4-[1-(3-chloro-4-fluorophenyl)sulfonyl-cyclopropyl]-6-[(3S)-3-methylmorpholin-4-yl]pyrimidin-2-yl]phenyl]-3-cyclopropylurea], 19 nM.
Take `C[C@H]1COCCN1c1cc(C2(S(=O)(=O)c3ccc(F)c(Cl)c3)CC2)nc(-c2ccc(NC(=O)NCCO)cc2)n1` [Example 95c, 1-[4-[4-[1-(3-chloro-4-fluorophenyl)sulfonyl-cyclopropyl]-6-[(3S)-3-methylmorpholin-4-yl]pyrimidin-2-yl]phenyl]-3-(2-hydroxyethyl)urea]: the IC50 worked out at 7.06 nM.
For `C[C@H]1COCCN1c1cc(C2(S(=O)(=O)c3ccc(F)c(Cl)c3)CC2)nc(-c2ccc(NC(=O)NCCF)cc2)n1` [Example 95d, 1-[4-[4-[1-(3-chloro-4-fluorophenyl)sulfonyl-cyclopropyl]-6-[(3S)-3-methylmorpholin-4-yl]pyrimidin-2-yl]phenyl]-3-(2-fluoroethyl)urea] the value was 12.6 nM.
For `C[C@H]1COCCN1c1cc(C2(S(=O)(=O)c3ccc(F)c(Cl)c3)CC2)nc(-c2ccc(NC(=O)NCC(F)F)cc2)n1` [Example 95e, 1-[4-[4-[1-(3-chloro-4-fluorophenyl)sulfonyl-cyclopropyl]-6-[(3S)-3-methylmorpholin-4-yl]pyrimi-din-2-yl]phenyl]-3-(2,2-difluoroethyl)urea] the value was 16 nM; for `CCNC(=O)Nc1ccc(-c2nc(N3CCOC[C@@H]3C)cc(C3(S(=O)(=O)c4ccc(F)c(Cl)c4)CC3)n2)cc1` [Example 95f, 3-[4-[4-[1-(3-chloro-4-fluorophenyl)sulfonyl-cyclopropyl]-6-[(3S)-3-methylmorpholin-4-yl]pyrimidin-2-yl]phenyl]-1-ethylurea], 10.9 nM; for `C[C@H]1COCCN1c1cc(C2(S(=O)(=O)c3ccc(F)c(Cl)c3)CC2)nc(-c2ccc(NC(=O)Nc3cnn(C)c3)cc2)n1` [Example 95g, 1-[4-[4-[1-(3-chloro-4-fluorophenyl)sulfonyl-cyclopropyl]-6-[(3S)-3-methylmorpholin-4-yl]pyrimidin-2-yl]phenyl]-3-(1-methylpyrazol-4-yl)urea], 16.4 nM.
`CNC(=O)Nc1ccc(-c2nc(N3CCOC[C@@H]3C)cc(C3(S(=O)(=O)c4ccc(NC)c(Cl)c4)CC3)n2)cc1` [Example 95h, 1-[4-[4-[1-(3-chloro-4-methylamino-phenyl)sulfonylcyclo-propyl]-6-[(3S)-3-methylmorpho-lin-4-yl]pyrimidin-2-yl]phenyl]-3-methylurea]: the IC50 was determined as 13 nM.
Then `C[C@H]1COCCN1c1cc(C2(S(=O)(=O)c3ccc(NCCO)c(Cl)c3)CC2)nc(-c2ccc(NC(=O)NCCO)cc2)n1` [Example 95i, 1-[4-[4-[1-[3-chloro-4-(2-hydroxyethylamino)phenyl]sulfonylcyclopropyl]-6-[(3S)-3-methylmorpho-lin-4-yl]pyrimidin-2-yl]phenyl]-3-(2-hydroxyethyl)urea], with 4.79 nM.
Then `C[C@H]1COCCN1c1cc(C2(S(=O)(=O)c3ccc(NCCF)c(Cl)c3)CC2)nc(-c2ccc(NC(=O)NCCF)cc2)n1` [Example 95j, 1-[4-[4-[1-[3-chloro-4-(2-fluoroethyl-amino)phenyl]sulfonyl-cyclopropyl]-6-[(3S)-3-methylmorpho-lin-4-yl]pyrimidin-2-yl]phenyl]-3-(2-fluoroethyl)urea], with 13.1 nM.
Then `CCNC(=O)Nc1ccc(-c2nc(N3CCOC[C@@H]3C)cc(C3(S(=O)(=O)c4ccc(NCC)c(Cl)c4)CC3)n2)cc1` [Example 95k, 1-[4-[4-[1-(3-chloro-4-ethylamino-phenyl)sulfonylcyclopro-pyl]-6-[(3S)-3-methylmorpho-lin-4-yl]pyrimidin-2-yl]phenyl]-3-ethylurea], with 27.2 nM.
